Experimental data from ChEMBL document CHEMBL2074206, “Uraemic toxins induce proximal tubular injury via organic anion transporter 1-mediated uptake” (Br J Pharmacol, 2002).

Target: T1, Solute carrier family 22 member 6 (Homo sapiens, UniProt Q4U2R8)
T1 sequence (Q4U2R8 whole entry): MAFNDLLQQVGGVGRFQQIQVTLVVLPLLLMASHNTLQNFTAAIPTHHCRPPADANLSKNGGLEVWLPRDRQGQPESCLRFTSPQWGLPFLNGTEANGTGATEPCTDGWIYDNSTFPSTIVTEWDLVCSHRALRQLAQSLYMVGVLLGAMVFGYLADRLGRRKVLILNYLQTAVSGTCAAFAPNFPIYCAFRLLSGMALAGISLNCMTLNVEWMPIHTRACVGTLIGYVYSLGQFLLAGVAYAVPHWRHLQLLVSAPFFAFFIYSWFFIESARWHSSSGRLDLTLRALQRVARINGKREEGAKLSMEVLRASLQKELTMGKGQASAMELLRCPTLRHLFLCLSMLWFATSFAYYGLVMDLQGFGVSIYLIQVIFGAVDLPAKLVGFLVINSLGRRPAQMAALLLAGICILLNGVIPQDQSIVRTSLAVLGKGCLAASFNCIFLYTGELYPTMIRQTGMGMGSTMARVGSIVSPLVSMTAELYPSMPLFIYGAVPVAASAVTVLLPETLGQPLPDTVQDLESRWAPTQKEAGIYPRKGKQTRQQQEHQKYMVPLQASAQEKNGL
Experiment: TP_TRANSPORTER: inhibition of PAH uptake in OAT1-expressing OK cells
Assay type: functional, cell-based

IC50: 25 µM
Structure (SMILES): O=C(O)CNC(=O)c1ccc(O)cc1
